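Method: 48-hour compound exposure of cells in 96-well plates, five concentrations, linear interpolation of endpoints. GI50: concentration for 50% inhibition of growth. The concentration for full growth arrest is given as TGI.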
Legend:
Test in all cases: growth of human tumour cells (NCI), 48 h
[1] = system: OVCAR-5 ovarian
[2] = system: SK-MEL-2 melanoma
[3] = system: SNB-19 CNS
[4] = system: NCI-H460 lung
[5] = system: HOP-62 NSCLC
[6] = system: T-47D breast
[7] = system: HCT-116 colon
[8] = system: HCT-15 colon
[9] = system: SK-MEL-5 melanoma
[10] = system: HS 578T breast
[11] = system: OVCAR-4 ovarian
[12] = system: NCI-H226 lung
[13] = system: A498 renal
[14] = system: SK-OV-3 ovarian
[15] = system: CCRF-CEM leukemia
[16] = system: SK-MEL-28 melanoma
[17] = system: ACHN renal
[18] = system: TK-10 renal
[19] = system: SF-539 CNS
[20] = system: U251 CNS
[21] = system: DU-145 prostate
[22] = system: SW-620 colon
[23] = system: SN12C renal
[24] = system: HOP-92 NSCLC
[25] = system: A549 NSCLC
[26] = system: K-562 leukemia
[27] = system: OVCAR-8 ovarian
[28] = system: MALME-3M melanoma
[29] = system: NCI-H522 lung

For `O=C(/C=C/c1c(-c2ccccc2)[nH]c2ccccc12)S(=O)(=O)c1ccccc1`, the GI50 [1] was > 100 µM, the TGI [1] was > 100 µM and the GI50 [2] was 78.6 µM. For the same compound, the TGI [2] was > 100 µM, the GI50 [3] was 35.7 µM and the TGI [3] was > 100 µM. For the same compound, the GI50 [4] was 3.7 µM, the TGI [4] was > 100 µM and the GI50 [5] was 29.9 µM. The TGI [5] was > 100 µM, the GI50 [6] was 2.5 µM and the TGI [6] was > 100 µM. For the same compound, the GI50 [7] was 4.81 µM, the TGI [7] was > 100 µM and the GI50 [8] was 6.42 µM. For the same compound, the TGI [8] was > 100 µM, the GI50 [9] was 4.38 µM and the TGI [9] was > 100 µM. The GI50 [10] was 10.1 µM, the TGI [10] was > 100 µM and the GI50 [11] was 4.48 µM. The TGI [11] was > 100 µM, the GI50 [12] was > 100 µM and the TGI [12] was > 100 µM. The GI50 [13] was 2.2 µM, the TGI [13] was 87.8 µM and the GI50 [14] was 23.5 µM. The TGI [14] was > 100 µM, the GI50 [15] was 5.41 µM and the TGI [15] was > 100 µM. The GI50 [16] was 27.1 µM, the TGI [16] was > 100 µM and the GI50 [17] was 39.8 µM. For the same compound, the TGI [17] was > 100 µM, the GI50 [18] was 74 µM and the TGI [18] was > 100 µM. For the same compound, the GI50 [19] was 17.5 µM, the TGI [19] was > 100 µM and the GI50 [20] was 40.3 µM. The TGI [20] was > 100 µM, the GI50 [21] was 7.54 µM and the TGI [21] was > 100 µM. For the same compound, the GI50 [22] was 5.1 µM, the TGI [22] was > 100 µM and the GI50 [23] was > 100 µM. The TGI [23] was > 100 µM, the GI50 [24] was 16.3 µM and the TGI [24] was > 100 µM. For the same compound, the GI50 [25] was 24.9 µM, the TGI [25] was > 100 µM and the GI50 [26] was 3.7 µM. The TGI [26] was > 100 µM, the GI50 [27] was 53.6 µM and the TGI [27] was > 100 µM. The GI50 [28] was 8.11 µM, the TGI [28] was > 100 µM and the GI50 [29] was 6.11 µM.

— PubChem BioAssay (NCI)
